PubChem BioAssay AID624376 (Broad Institute, 2012)
Inconclusive results are not listed. Active and inactive are the calls of the source. No rule for the calls is given here.

How the values were obtained:
[1] = system: LMP1-induced NF-kappaB luciferase reporter cells, luminescence; experiment: LMP1-driven NF-kB reporter inhibition, dose response, cell-based, luciferase reporter, luminescence, dry powder, set 2 (AID 624376)
[2] = as above; details: LMP1-induced NF-kappaB luciferase reporter cells, luminescence

Row | SMILES | AC50 [1] | also measured
1 | O=C(C[C@H]1C[C@H]2c3cc(NS(=O)(=O)c4ccc(F)cc4)ccc3O[C@H]2[C@H](CO)O1)NCc1ccc(Oc2ccccc2)cc1 | 10 µM | 
2 | C[C@@H]1CN([C@H](C)CO)S(=O)(=O)c2ccc(/C=C/c3ccccc3)cc2O[C@H]1CN(C)C(=O)NC1CCCCC1 | 25.3 µM | 
3 | O=C(C[C@@H]1CC[C@H]2[C@@H](COC[C@H](O)CN2Cc2ccc(Oc3ccccc3)cc2)O1)N1CCc2ccccc2C1 | 19.7 µM | 
4 | CC(C)NC(=O)N1Cc2cc(C(=O)NC3Cc4ccccc4C3)nc(-c3cccc(-c4cccnc4)c3)c2[C@H]1CCO | 33.6 µM | 
5 | Cc1cc(C(=O)Nc2ccc3c(c2)C(=O)N(C)[C@@H]2CC[C@@H](CC(=O)NCc4ccc(-c5ccccc5)cc4)O[C@H]2CO3)no1 | 25.9 µM | 
6 | N#C[C@H]1[C@@H](c2ccc(-c3cccnc3)cc2)[C@@H](CO)N1C(=O)Nc1ccc(F)cc1 | 13.9 µM | 
7 | O=C(C[C@@H]1CC[C@@H]2[C@H](COC[C@@H](O)CN2Cc2ccc(Oc3ccccc3)cc2)O1)N1CCc2ccccc2C1 | 16.4 µM | 
8 | CC(C)NC(=O)N1Cc2cc(C(=O)NC3Cc4ccccc4C3)nc(-c3cccc(-c4cccnc4)c3)c2[C@@H]1CCO | 22 µM | 
9 | O=C(C[C@@H]1C[C@@H]2c3cc(NS(=O)(=O)c4ccc(F)cc4)ccc3O[C@@H]2[C@@H](CO)O1)NCc1ccc(Oc2ccccc2)cc1 | 8.07 µM | 
10 | O=C(C[C@@H]1C[C@H]2c3cc(NS(=O)(=O)c4ccc(F)cc4)ccc3O[C@H]2[C@@H](CO)O1)NCc1ccc(Oc2ccccc2)cc1 | 15.3 µM | 
11 | O=C(Nc1ccc(C(F)(F)F)cc1)Nc1ccc2c(c1)[C@@H]1C[C@H](CC(=O)N3CCc4ccccc4C3)O[C@H](CO)[C@@H]1O2 | 18.3 µM | 
12 | O=C(C[C@H]1CC[C@@H]2[C@H](COC[C@H](O)CN2Cc2ccc(Oc3ccccc3)cc2)O1)N1CCc2ccccc2C1 | 34.5 µM | 
13 | N#C[C@H]1[C@H](c2ccc(C#Cc3ccccc3F)cc2)[C@@H](CO)N1C(=O)c1cccnc1 | 15 µM | 
14 | C[C@H]1CN([C@@H](C)CO)S(=O)(=O)c2ccc(C#Cc3ccncc3)cc2O[C@H]1CN(C)C(=O)Nc1ccc2c(c1)OCO2 | 19.7 µM | 
15 | O=C(C[C@@H]1CC[C@@H]2[C@H](COC[C@H](O)CN2Cc2ccc3c(c2)OCO3)O1)Nc1ccc(-c2ccccc2)cc1 | 7.97 µM | 
16 | Cc1cc(C(=O)Nc2ccc3c(c2)C(=O)N(C)[C@H]2CC[C@@H](CC(=O)NCc4ccc(-c5ccccc5)cc4)O[C@H]2CO3)no1 | 10.8 µM | 
17 | Cc1ccc(S(=O)(=O)N(C)C[C@H]2Oc3cc(C#Cc4ccncc4)ccc3S(=O)(=O)N([C@@H](C)CO)C[C@H]2C)cc1 | 21.4 µM | 
18 | COc1cccc(C#Cc2ccc([C@@H]3[C@@H](C#N)N(C(=O)c4ccccn4)[C@@H]3CO)cc2)c1 | 19.2 µM | 
19 | O=C(C[C@H]1C[C@@H]2c3cc(NC(=O)c4ccc5c(c4)OCO5)ccc3O[C@@H]2[C@@H](CO)O1)NCc1ccc(Oc2ccccc2)cc1 | 24.5 µM | 
20 | C[C@H](CO)N1C[C@H](C)[C@H](CN(C)C(=O)NC2CCCCC2)Oc2cc(/C=C/c3ccccc3)ccc2S1(=O)=O | 31 µM | 

Row | SMILES | AC50 [1] | also measured
21 | COc1ccccc1C#Cc1cnc2c(c1)C(=O)N([C@@H](C)CO)C[C@H](C)[C@@H](CN(C)C(=O)c1ccc3c(c1)OCO3)O2 | 25.9 µM | 
22 | C[C@@H]1CN([C@@H](C)CO)S(=O)(=O)c2ccc(C#Cc3ccncc3)cc2O[C@H]1CN(C)C(=O)Nc1ccc2c(c1)OCO2 | 31.6 µM | 
23 | Cc1cc(C(=O)Nc2ccc3c(c2)C(=O)N(C)[C@H]2CC[C@H](CC(=O)NCc4ccc(-c5ccccc5)cc4)O[C@H]2CO3)no1 | 14.7 µM | 
24 | COc1ccccc1C#Cc1ccc2c(c1)O[C@H](CN(C)Cc1cccnc1)[C@@H](C)CN([C@@H](C)CO)S2(=O)=O | 13.9 µM | 
25 | Cc1ccc(S(=O)(=O)N(C)C[C@H]2Oc3cc(C#Cc4ccncc4)ccc3S(=O)(=O)N([C@@H](C)CO)C[C@@H]2C)cc1 | 21.2 µM | 
26 | CN(C)C(=O)c1cccc(-c2cccc(-c3nc(C(=O)NCc4ccccc4)cc4c3[C@@H](CCO)N([S@](=O)C(C)(C)C)C4)c2)c1 | 16.9 µM | 
27 | CC(C)c1ccc(NC(=O)C[C@H]2CC[C@H]3[C@@H](COc4ccc(NC(=O)Nc5ccc(F)c(F)c5)cc4C(=O)N3C)O2)cc1 | 22.2 µM | 
28 | CN(C)C(=O)c1ccc(-c2cccc(-c3nc(C(=O)NCc4ccccc4)cc4c3[C@@H](CCO)N([S@](=O)C(C)(C)C)C4)c2)cc1 | 13.7 µM | 
29 | C[C@H]1CN([C@@H](C)CO)C(=O)c2cc(C#Cc3ccccc3F)cnc2O[C@@H]1CN(C)C(=O)C1CCCCC1 | 27.7 µM | 
30 | COc1ccc(-c2cccc(-c3nc(C(=O)NCC(F)(F)F)cc4c3[C@H](CCO)N([S@@](=O)C(C)(C)C)C4)c2)cc1 | 24.3 µM | 
31 | CN(C)c1ccc2c(c1)[C@@H]1C[C@@H](CC(=O)NCc3ccc(Oc4ccccc4)cc3)O[C@H](CO)[C@@H]1O2 | 21.6 µM | 
32 | O=C(C[C@@H]1C[C@H]2c3cc(NC(=O)c4ccc5c(c4)OCO5)ccc3O[C@H]2[C@H](CO)O1)NC1CCCCC1 | 16.8 µM | 
33 | CC(C)(C)[S@](=O)N1Cc2cc(C(=O)NCC(F)(F)F)nc(-c3cccc(-c4cccc(F)c4)c3)c2[C@@H]1CCO | 11.9 µM | 
34 | O=C(Nc1ccc(C(F)(F)F)cc1)Nc1ccc2c(c1)[C@@H]1C[C@H](CC(=O)N3CCc4ccccc4C3)O[C@@H](CO)[C@@H]1O2 | 15.1 µM | 
35 | N#C[C@H]1N[C@H](CO)[C@H]1c1ccc(C#Cc2ccccc2F)cc1 | < 0.26 µM | 
36 | CN1C(=O)c2cc(NC(=O)c3ccc(C(F)(F)F)cc3)ccc2OC[C@@H]2O[C@@H](CC(=O)NC3Cc4ccccc4C3)CC[C@H]21 | 24.5 µM | 
37 | COc1cccc(C#Cc2ccc([C@@H]3[C@H](C#N)N(C(=O)c4ccccn4)[C@H]3CO)cc2)c1 | 29.5 µM | 
38 | N#C[C@H]1[C@H](c2ccc(C#Cc3ccccc3F)cc2)[C@H](CO)N1C(=O)c1cccnc1 | 12.6 µM | 
39 | O=C(Nc1ccc(C(F)(F)F)cc1)Nc1ccc2c(c1)[C@H]1C[C@@H](CC(=O)N3CCc4ccccc4C3)O[C@@H](CO)[C@H]1O2 | 27.9 µM | 
40 | COc1ccccc1C#Cc1ccc2c(c1)O[C@H](CN(C)Cc1cccnc1)[C@H](C)CN([C@@H](C)CO)S2(=O)=O | 17.4 µM | 

Row | SMILES | AC50 [1] | also measured
41 | CCCNC(=O)c1cc2c(c(-c3cccc(-c4cccc(F)c4)c3)n1)[C@H](CCO)N([S@@](=O)C(C)(C)C)C2 | 22.7 µM | 
42 | O=C(C[C@H]1C[C@@H]2c3cc(NS(=O)(=O)c4ccc(F)cc4)ccc3O[C@@H]2[C@@H](CO)O1)NCc1ccc(Oc2ccccc2)cc1 | 13.5 µM | 
43 | O=C(Nc1ccc(C(F)(F)F)cc1)Nc1ccc2c(c1)[C@H]1C[C@H](CC(=O)N3CCc4ccccc4C3)O[C@H](CO)[C@H]1O2 | 24.2 µM | 
44 | N#C[C@@H]1[C@H](c2ccc(C#Cc3ccccc3F)cc2)[C@@H](CO)N1C(=O)c1cccnc1 | 1.02 µM | 
45 | O=C(C[C@H]1CC[C@H]2[C@@H](COC[C@@H](O)CN2Cc2ccc3c(c2)OCO3)O1)Nc1ccc(-c2ccccc2)cc1 | 24.1 µM | 
46 | O=C(C[C@H]1C[C@H]2c3cc(NC(=O)c4ccc5c(c4)OCO5)ccc3O[C@H]2[C@H](CO)O1)NCc1ccc(Oc2ccccc2)cc1 | 18.7 µM | 
47 | CN1C(=O)c2cc(NC(=O)Cc3cccs3)ccc2OC[C@@H]2O[C@H](CC(=O)NCc3ccc(-c4ccccc4)cc3)CC[C@H]21 | 33 µM | 
48 | O=C(C[C@@H]1CC[C@@H]2[C@H](COC[C@@H](O)CN2Cc2ccc3c(c2)OCO3)O1)Nc1ccc(-c2ccccc2)cc1 | 10.2 µM | 
49 | C[C@H]1CN([C@@H](C)CO)C(=O)c2c(c3ccccc3n2C)-c2ccccc2CO[C@H]1CN(C)C(=O)Nc1ccc(F)cc1 |  | activity change, negative = inhibition ([2]; at 35 µM (top of the series)): 1.49% (inactive)
50 | C[C@H](NC(=O)C[C@@H]1C=C[C@H](NC(=O)Cc2ccccn2)[C@H](CO)O1)c1ccccc1 |  | activity change, negative = inhibition ([2]; at 30 µM (top of the series)): -8.89% (inactive)
51 | COc1ccccc1C#Cc1ccc([C@H]2[C@H](C#N)N(C(=O)C3CC3)[C@H]2CO)cc1 | 30.5 µM | 
52 | Cc1cc(C(=O)Nc2ccc3c(c2)C(=O)N(C)[C@@H]2CC[C@H](CC(=O)NCc4ccc(-c5ccccc5)cc4)O[C@@H]2CO3)no1 | 9.74 µM | 
53 | O=C(C[C@@H]1C[C@@H]2c3cc(NS(=O)(=O)c4ccc(F)cc4)ccc3O[C@@H]2[C@H](CO)O1)NC1CCCCC1 |  | activity change, negative = inhibition ([2]; at 35 µM (top of the series)): 7.3% (inactive)
54 | O=C(C[C@@H]1C[C@@H]2c3cc(NC(=O)c4ccc5c(c4)OCO5)ccc3O[C@@H]2[C@@H](CO)O1)NCc1ccc(Oc2ccccc2)cc1 | 9.85 µM | 
55 | Cc1cc(C(=O)Nc2ccc3c(c2)C(=O)N(C)[C@@H]2CC[C@H](CC(=O)NCc4ccc(-c5ccccc5)cc4)O[C@H]2CO3)no1 | 1.6 µM | 
56 | COc1ccccc1C#Cc1ccc2c(c1)O[C@H](CN(C)Cc1cccnc1)[C@H](C)CN([C@H](C)CO)S2(=O)=O | 22.9 µM | 
57 | C[C@@H]1CN([C@@H](C)CO)C(=O)c2c(c3ccccc3n2C)-c2ccccc2CO[C@@H]1CN(C)C(=O)Nc1ccc(F)cc1 |  | activity change, negative = inhibition ([2]; at 35 µM (top of the series)): 6.54% (inactive)
58 | CN(C)c1ccc2c(c1)[C@@H]1C[C@H](CC(=O)NCc3ccc(Oc4ccccc4)cc3)O[C@@H](CO)[C@@H]1O2 | 9.81 µM | 
59 | CC(C)(C)[S@@](=O)N1Cc2cc(C(=O)NCc3ccccc3F)nc(-c3cccc(-c4cccnc4)c3)c2[C@H]1CCO | 35.6 µM | 
